Several values for one entry are separate records, joined by “and”; a condition that tells them apart may be missing. Equal entries are not always repeated.
Tests used:
mP2X7R = target: T1, mP2X7R (Mus musculus, UniProt Q9Z1M0); assay: Calcium influx assay, 1321N1 astrocytoma cells, BzATP EC80; format: cell-based; conditions: for IC50: 1321N1 cells, BzATP EC80, mean ± SD
T1 construct: expressed in transfected cells
T1 sequence (Q9Z1M0 1-595): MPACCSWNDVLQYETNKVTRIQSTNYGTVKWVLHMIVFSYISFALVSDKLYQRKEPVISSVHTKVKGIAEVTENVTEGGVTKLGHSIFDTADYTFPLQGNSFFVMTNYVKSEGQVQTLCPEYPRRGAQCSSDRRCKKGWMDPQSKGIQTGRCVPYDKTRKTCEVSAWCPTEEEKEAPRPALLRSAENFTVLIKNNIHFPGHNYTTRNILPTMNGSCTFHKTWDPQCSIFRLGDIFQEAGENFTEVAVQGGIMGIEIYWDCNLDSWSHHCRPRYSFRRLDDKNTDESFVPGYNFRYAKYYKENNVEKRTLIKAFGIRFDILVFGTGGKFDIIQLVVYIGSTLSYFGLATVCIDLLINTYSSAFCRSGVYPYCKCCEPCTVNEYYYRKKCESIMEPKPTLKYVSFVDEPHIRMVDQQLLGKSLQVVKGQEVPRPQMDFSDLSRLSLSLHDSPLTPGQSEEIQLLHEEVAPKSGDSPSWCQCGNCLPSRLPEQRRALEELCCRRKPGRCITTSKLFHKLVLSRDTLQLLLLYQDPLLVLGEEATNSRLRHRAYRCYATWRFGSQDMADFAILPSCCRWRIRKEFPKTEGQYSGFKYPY
Text: (§1) . For 1321N1 astrocytoma cells stably expressing the human, rat, or mouse P2X7Rs, or hP2X2Rs or hP2X4Rs, the fluorescent Ca^2+-chelating dye Fluo-4 acetoxymethyl ester (Fluo-4 AM, Thermo Fisher Scientific, Dreieich, Germany) was used. For 1321N1 astrocytoma cell lines recombinantly expressing the hP2X1Rs or hP2X3Rs, the FLIPR® Calcium 5 Assay Kit (Molecular Devices, San José, CA, USA) was employed. Human, rat, and mouse P2X7Rs as well as hP2X1Rs, hP2X2Rs, hP2X3Rs, and hP2X4Rs were recombinantly expressed in 1321N1 astrocytoma cells using a retroviral expression system[72]–[74].
On the first day, 45,000 cells per well (30,000 cells for the human P2X3 receptor-expressing cells) were seeded into a 96-well polystyrene microplate with a black, flat bottom in a final volume of 200 µL. After overnight incubation at 37 °C and 10% CO2 (5% CO2 for the human P2X3R-expressing cell line), the medium was removed by inverting the plate, and the cells were loaded with dye solution. Hanks’ balanced salt solution (HBSS, Thermo Fisher Scientific, Dreieich, Germany) was used as the assay buffer for human P2X1R, P2X2R, P2X3R, and P2X4R. For the P2X7Rs, a different assay buffer was used: 150 mM sodium-glutamate, 5 mM KCl, 0.5 mM CaCl2, 0.1 mM MgCl2, 10 mM D-glucose, 25 mM 4-(2-hydroxyethyl)-1-piperazineethanesulfonic acid (HEPES), pH 7.4. The dye solutions were freshly prepared. The Fluo-4 AM solution contained 3 µM of Fluo-4 AM in assay buffer and 1% of the non-ionic detergent Pluronic F-127® (Sigma-Aldrich, Taufkirchen, Germany). The Calcium 5 dye, used for hP2X1Rs and hP2X3Rs, was prepared in HBSS buffer. Cells were loaded with Fluo-4 AM and incubated for 1 h at room temperature with gentle shaking (100 rpm), while those loaded with the Calcium 5 dye were incubated for 1 h at 37 °C. After incubation, the dye solution was carefully removed from the plate, and buffer was added to the cells for the evaluation of agonists. […] The agonist solution was prepared in a 96-well transparent plate, obtaining the respective EC80 values. As a control, assay buffer without the test compound was used. After 30 min of incubation with antagonist, the plates were measured using a fluorescence imaging plate reader NOVOstar (BMG Labtech GmbH, Offenburg, Germany) at an excitation wavelength of 485 nm and an emission wavelength of 520 nm, for 30 s at 0.4 s intervals. Calcium influx measurements were then initiated by automatic addition of 20 µL of agonist solution by the plate reader’s pipetting device. Data were analyzed using Microsoft Excel and GraphPad Prism (Version 8.0, San Diego, CA, USA). EC80 and IC50 values were calculated using nonlinear regression with a sigmoidal dose-response equation.

hP2X1R = target: T2, hP2X1R (Homo sapiens, UniProt P51575); assay: Calcium influx assay, 1321N1 astrocytoma cells, ATP EC80; format: cell-based; conditions: 1321-N1, read-out: % inhibition ± SD at 10 μM, hP2X1R, 10 μM antagonist, ATP 100 nM
T2 sequence (P51575 51-338 limits assumed): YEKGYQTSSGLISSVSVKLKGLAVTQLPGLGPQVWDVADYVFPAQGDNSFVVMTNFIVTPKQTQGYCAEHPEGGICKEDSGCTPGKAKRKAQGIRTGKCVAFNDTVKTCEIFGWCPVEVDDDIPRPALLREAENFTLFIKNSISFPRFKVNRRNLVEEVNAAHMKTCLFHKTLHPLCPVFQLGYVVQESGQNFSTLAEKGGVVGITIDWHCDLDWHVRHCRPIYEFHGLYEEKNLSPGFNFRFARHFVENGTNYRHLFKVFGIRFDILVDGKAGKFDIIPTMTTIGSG
Text: as §1
On the first day, 45,000 cells per well (30,000 cells for the human P2X3 receptor-expressing cells) were seeded into a 96-well polystyrene microplate with a black, flat bottom in a final volume of 200 µL. […] After 30 min of incubation with antagonist, the plates were measured using a fluorescence imaging plate reader NOVOstar (BMG Labtech GmbH, Offenburg, Germany) at an excitation wavelength of 485 nm and an emission wavelength of 520 nm, for 30 s at 0.4 s intervals. Calcium influx measurements were then initiated by automatic addition of 20 µL of agonist solution by the plate reader’s pipetting device. Data were analyzed using Microsoft Excel and GraphPad Prism (Version 8.0, San Diego, CA, USA). EC80 and IC50 values were calculated using nonlinear regression with a sigmoidal dose-response equation.

Row | activity at 0.003 µM (mP2X7R; 1321-N1, Log(c) M -8.52288, read-out: normalized calcium signal, mP2X7R IC50 curve) | IC50 (mP2X7R) | inhibition at 10 µM (hP2X1R) | SMILES | normalized calcium signal, mP2X7R IC50 curve (mP2X7R; Log(c) M -7, 0.1 µM) | normalized calcium signal, mP2X7R IC50 curve (mP2X7R; Log(c) M -7.52288, 0.03 µM) | normalized calcium signal, mP2X7R IC50 curve (mP2X7R; Log(c) M -8, 0.01 µM) | normalized calcium signal, mP2X7R IC50 curve (mP2X7R; Log(c) M -8.52288, 0.003 µM) | normalized calcium signal, mP2X7R IC50 curve (mP2X7R; Log(c) M -9, 0.001 µM) | normalized calcium signal, mP2X7R IC50 curve (mP2X7R; Log(c) M -9.52288, 0.0003 µM) | times more potent than UB-ALT-P30 on the mP2X7R (mP2X7R; calcium influx)
1 | 101% | 148 ± 27 nM | 36 ± 8% | O=C(NNc1ccccc1Cl)C12CC3CC(CC(C3)C1)C2 [UB-ALT-P30, reference compound] | 58.6062 and 69.2329 and 80.2999 and 70.4572 and 91.3507 and 85.9323 and 94.1322 | 92.3415 and 79.1265 and 114.599 and 132.12 and 97.8989 and 119.546 | 92.8335 and 100.155 and 89.6254 and 122.632 and 113.342 and 120.308 | 96.3012 and 101.363 |  |  | 
2 |  | 4.52 ± 0.72 nM |  | CC12CC3CC1(C)C1(C)CC3(C(=O)NNc3ccccc3Cl)CC21C [UB-MBX-46] |  |  |  | 72.2751 and 83.0134 and 65.4518 and 88.1956 and 92.7904 and 87.7744 and 76.3105 and 64.8252 | 110.597 and 115.455 and 88.4 and 102.046 and 107.58 and 103.403 and 110.382 | 115.86 and 127.811 and 92.8545 and 89.4511 and 104.887 and 106.902 and 87.8281 and 105.571 | ~ 33 x
